In BindingDB's records for doi:10.1111/j.1749-6632.1998.tb10185.x (Albany Medical College, 1998) one finds Ki data, which are given here for four molecules.

Several values for one entry are separate records, joined by “and”; a condition that tells them apart may be missing. Identical values can stand only once.

In the assay the target is T1, 5-hydroxytryptamine receptor 2C (Rattus norvegicus, UniProt P08909).
T1 sequence (P08909 whole entry): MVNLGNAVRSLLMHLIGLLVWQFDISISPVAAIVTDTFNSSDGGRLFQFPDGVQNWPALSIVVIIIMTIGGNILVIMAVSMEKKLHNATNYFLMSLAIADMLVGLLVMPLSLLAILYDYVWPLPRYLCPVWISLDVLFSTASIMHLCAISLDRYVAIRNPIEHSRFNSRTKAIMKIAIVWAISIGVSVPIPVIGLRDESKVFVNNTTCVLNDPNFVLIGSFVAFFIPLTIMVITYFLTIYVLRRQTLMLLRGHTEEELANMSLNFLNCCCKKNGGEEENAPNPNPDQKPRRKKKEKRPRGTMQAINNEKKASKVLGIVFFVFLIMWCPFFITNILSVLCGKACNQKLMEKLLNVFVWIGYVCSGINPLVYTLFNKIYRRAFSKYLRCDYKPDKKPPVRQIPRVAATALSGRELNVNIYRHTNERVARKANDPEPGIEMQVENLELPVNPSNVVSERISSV
As a reminder, the Ki is the dissociation constant of the complex between target and ligand, obtained from inhibition or displacement. Lower therefore signals tighter binding. Turning to `O=C(c1ccc(F)cc1)C1CCN(CCn2c(=O)[nH]c3ccccc3c2=O)CC1` [3-(2-{4-[(4-fluorophenyl)carbonyl]piperidin-1-yl}ethyl)-1,2,3,4-tetrahydroquinazoline-2,4-dione], the Ki is 103 nM and 94 nM. For the molecule `c1ccc2nc(N3CCNCC3)ccc2c1` [2-Piperazin-1-yl-quinoline (Quipazine)], the Ki is 160 nM and 1340 nM. As for `CC[C@@H](CO)NC(=O)[C@@H]1C=C2c3cccc4c3c(cn4C)C[C@H]2N(C)C1`, the Ki was 0.8 nM and 1 nM. Molecule `NCCc1c[nH]c2ccc(C(N)=O)cc12` [[3H]-5-carboxamidotryptamine] registered a Ki of 5810 nM.
